The results in this text go back to patent US8957078B2, “Compounds useful as inhibitors of ATR kinase” (Vertex Pharmaceuticals Incorporated, priority 2013, dated 2015).

Assay [1] deals with HCT116 colorectal cancer cells. The assay is described as follows: Cisplatin Sensitization Assay (96 h cell viability MTS). It counts as cell-based. The following applies: concentration of compound required to reduce the IC50 of Cisplatin alone by at least 3-fold; HCT116, 96 h MTS. The procedure:
Compounds can be screened for their ability to sensitize HCT116 colorectal cancer cells to Cisplatin using a 96 h cell viability (MTS) assay. […] Compounds and Cisplatin are then both added simultaneously to the cell media in 2-fold serial dilutions from a top final concentration of 10 μM as a full matrix of concentrations in a final cell volume of 200 μl, and the cells are then incubated at 37° C. in 5% CO2. After 96 h, 40 μl of MTS reagent (Promega G358a) is added to each well and the cells are incubated for 1 h at 37° C. in 5% CO2. Finally, absorbance is measured at 490 nm using a SpectraMax Plus 384 reader (Molecular Devices) and the concentration of compound required to reduce the IC50 of Cisplatin alone by at least 3-fold (to 1 decimal place) can be reported.

For assay [2], the target named is T1, ATR kinase (full-length ATR) (Homo sapiens, UniProt Q13535).
T1 construct: in the presence of 5 nM full-length ATR
T1 sequence (Q13535 whole entry): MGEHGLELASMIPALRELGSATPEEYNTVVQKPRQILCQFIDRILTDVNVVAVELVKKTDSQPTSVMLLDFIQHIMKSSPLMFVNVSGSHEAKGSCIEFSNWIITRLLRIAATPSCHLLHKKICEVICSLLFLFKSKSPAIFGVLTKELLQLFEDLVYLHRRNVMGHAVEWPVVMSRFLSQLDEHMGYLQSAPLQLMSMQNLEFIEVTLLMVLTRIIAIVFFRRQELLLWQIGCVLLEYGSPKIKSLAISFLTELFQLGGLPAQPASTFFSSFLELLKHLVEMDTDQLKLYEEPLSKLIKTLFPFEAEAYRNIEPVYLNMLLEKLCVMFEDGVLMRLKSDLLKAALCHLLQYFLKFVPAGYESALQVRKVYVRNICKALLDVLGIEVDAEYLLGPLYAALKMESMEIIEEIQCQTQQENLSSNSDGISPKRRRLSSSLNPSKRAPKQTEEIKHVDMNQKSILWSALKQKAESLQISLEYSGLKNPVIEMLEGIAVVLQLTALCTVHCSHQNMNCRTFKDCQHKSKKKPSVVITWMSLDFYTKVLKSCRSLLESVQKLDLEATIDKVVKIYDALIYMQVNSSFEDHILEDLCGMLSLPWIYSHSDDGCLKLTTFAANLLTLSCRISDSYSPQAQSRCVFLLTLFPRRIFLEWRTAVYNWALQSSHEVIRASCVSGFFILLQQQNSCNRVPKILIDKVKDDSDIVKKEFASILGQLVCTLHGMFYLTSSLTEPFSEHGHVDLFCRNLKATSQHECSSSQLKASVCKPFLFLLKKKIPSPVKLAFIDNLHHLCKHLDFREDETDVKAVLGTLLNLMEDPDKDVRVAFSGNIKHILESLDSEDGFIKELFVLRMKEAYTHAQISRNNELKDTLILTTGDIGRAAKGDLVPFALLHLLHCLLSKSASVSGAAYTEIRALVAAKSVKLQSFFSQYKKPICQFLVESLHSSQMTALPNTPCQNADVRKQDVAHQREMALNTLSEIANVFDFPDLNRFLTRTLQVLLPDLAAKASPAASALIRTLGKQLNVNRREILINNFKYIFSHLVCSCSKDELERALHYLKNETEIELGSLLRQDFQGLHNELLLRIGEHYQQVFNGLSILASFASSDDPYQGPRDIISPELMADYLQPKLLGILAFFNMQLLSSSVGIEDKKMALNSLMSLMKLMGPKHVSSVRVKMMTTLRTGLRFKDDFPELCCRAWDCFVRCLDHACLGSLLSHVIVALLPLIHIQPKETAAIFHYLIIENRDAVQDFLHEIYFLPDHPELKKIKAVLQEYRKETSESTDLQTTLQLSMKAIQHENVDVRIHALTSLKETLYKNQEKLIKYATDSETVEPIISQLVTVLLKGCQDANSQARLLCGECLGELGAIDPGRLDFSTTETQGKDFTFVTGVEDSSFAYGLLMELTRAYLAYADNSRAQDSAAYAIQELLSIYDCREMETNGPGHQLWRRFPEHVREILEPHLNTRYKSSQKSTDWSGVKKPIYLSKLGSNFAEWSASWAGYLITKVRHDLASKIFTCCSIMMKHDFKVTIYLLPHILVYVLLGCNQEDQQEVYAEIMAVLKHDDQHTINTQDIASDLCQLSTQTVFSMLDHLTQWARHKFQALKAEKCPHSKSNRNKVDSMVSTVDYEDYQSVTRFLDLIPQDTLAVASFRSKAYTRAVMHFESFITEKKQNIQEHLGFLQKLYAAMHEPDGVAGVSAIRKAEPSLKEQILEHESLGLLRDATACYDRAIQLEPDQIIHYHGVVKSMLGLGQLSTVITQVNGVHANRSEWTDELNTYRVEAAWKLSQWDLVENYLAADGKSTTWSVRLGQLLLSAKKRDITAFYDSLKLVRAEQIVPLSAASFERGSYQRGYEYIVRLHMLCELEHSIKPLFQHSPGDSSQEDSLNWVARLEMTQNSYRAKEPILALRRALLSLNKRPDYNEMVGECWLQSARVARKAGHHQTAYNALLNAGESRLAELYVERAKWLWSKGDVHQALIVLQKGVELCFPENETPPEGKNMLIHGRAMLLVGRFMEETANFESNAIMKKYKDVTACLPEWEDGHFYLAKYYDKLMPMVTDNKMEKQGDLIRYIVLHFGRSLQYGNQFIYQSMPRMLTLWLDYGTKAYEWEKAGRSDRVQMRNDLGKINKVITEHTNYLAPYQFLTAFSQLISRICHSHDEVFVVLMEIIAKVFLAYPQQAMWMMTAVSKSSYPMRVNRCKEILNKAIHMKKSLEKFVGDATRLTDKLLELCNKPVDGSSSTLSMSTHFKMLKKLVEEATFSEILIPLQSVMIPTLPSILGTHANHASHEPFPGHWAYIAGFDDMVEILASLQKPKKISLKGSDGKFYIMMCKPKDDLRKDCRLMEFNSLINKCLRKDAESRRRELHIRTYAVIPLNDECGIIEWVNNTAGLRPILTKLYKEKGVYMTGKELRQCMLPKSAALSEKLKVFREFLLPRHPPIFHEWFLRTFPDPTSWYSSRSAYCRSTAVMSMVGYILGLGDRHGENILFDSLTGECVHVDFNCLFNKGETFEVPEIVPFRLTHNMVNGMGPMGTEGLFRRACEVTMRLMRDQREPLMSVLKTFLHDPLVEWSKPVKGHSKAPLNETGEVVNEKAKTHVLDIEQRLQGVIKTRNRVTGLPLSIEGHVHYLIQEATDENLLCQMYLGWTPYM
The assay is described as follows: ATR Inhibition Assay (radioactive-phosphate incorporation). Conditions: Ki(app); 5 nM full-length ATR, 10 μM ATP, 800 μM target peptide, 25° C. It counts as biochemical. The procedure: Compounds were screened for their ability to inhibit ATR kinase using a radioactive-phosphate incorporation assay. Assays were carried out in a mixture of 50 mM Tris/HCl (pH 7.5), 10 mM MgCl2 and 1 mM DTT. Final substrate concentrations were 10 μM [γ-33P]ATP (3 mCi 33P ATP/mmol ATP, Perkin Elmer) and 800 μM target peptide (ASELPASQPQPFSAKKK (SEQ. ID NO: 1)).
Assays were carried out at 25° C. in the presence of 5 nM full-length ATR. An assay stock buffer solution was prepared containing all of the reagents listed above, with the exception of ATP and the test compound of interest. 13.5 μL of the stock solution was placed in a 96 well plate followed by addition of 2 μL of DMSO stock containing serial dilutions of the test compound (typically starting from a final concentration of 15 μM with 3-fold serial dilutions) in duplicate (final DMSO concentration 7%). The plate was pre-incubated for 10 minutes at 25° C. and the reaction initiated by addition of 15 μL [γ-33P]ATP (final concentration 10 μM).
The reaction was stopped after […] by the addition of 30 μL 0.1M phosphoric acid containing 2 mM ATP. A multiscreen phosphocellulose filter 96-well plate (Millipore, Cat no. MAPHN0B50) was pretreated with 100 μL 0.2M phosphoric acid prior to the addition of 45 μL of the stopped assay mixture. The plate was washed with 5×200 μL 0.2M phosphoric acid. After drying, 100 μL Optiphase ‘SuperMix’ liquid scintillation cocktail (Perkin Elmer) was added to the well prior to scintillation counting (1450 Microbeta Liquid Scintillation Counter, Wallac).
After removing mean background values for all of the data points, Ki(app) data were calculated from non-linear regression analysis of the initial rate data using the Prism software package (GraphPad Prism version 3.0cx for Macintosh, GraphPad Software, San Diego Calif., USA).

The structures appear in SMILES notation.

Consider `CN1CCN(c2ncncc2NC(=O)c2c(N)nn3cc(F)cnc23)CC1` [I-A-20, 2-amino-6-fluoro-N-(4-(4-methylpiperazin-1-yl)pyrimidin-5-yl)pyrazolo[1,5-a]pyrimidine-3-carboxamide], for which the “Cisplatin Sensitization Assay” value in assay [1] is “+ (Compounds with a Cisplatin sensitization value >0.2 μM but <5 μM are marked with “+.”)”. Further, the Ki in assay [2] lay within 1000 to 5000 nM.
Taken in the same sequence, the figures for `CN1CCN(c2cnncc2NC(=O)c2c(N)nn3cc(F)cnc23)CC1` [I-B-1, 2-amino-6-fluoro-N-(5-(4-methylpiperazin-1-yl)pyridazin-4-yl)pyrazolo[1,5-a]pyrimidine-3-carboxamide] were “++ (Compounds with a Cisplatin sensitization value >0.02 μM but <0.2 μM are marked with “++.”)” and 10 to 1000 nM.
For `Nc1nn2cc(F)cnc2c1C(=O)Nc1cnncc1N1CCN(C2COC2)CC1` [I-B-2, 2-amino-6-fluoro-N-(5-(4-(oxetan-3-yl)piperazin-1-yl)pyridazin-4-yl)pyrazolo[1,5-a]pyrimidine-3-carboxamide], in that order: “++ (Compounds with a Cisplatin sensitization value >0.02 μM but <0.2 μM are marked with “++.”)” and 10 to 1000 nM.
Taken in the same sequence, the figures for `Nc1nn2cc(F)cnc2c1C(=O)Nc1cnncc1N1CCN(C2CCOCC2)CC1` [I-B-3, 2-amino-6-fluoro-N-(5-(4-(tetrahydro-2H-pyran-4-yl)piperazin-1-yl)pyridazin-4-yl)pyrazolo[1,5-a]pyrimidine-3-carboxamide] were “++ (Compounds with a Cisplatin sensitization value >0.02 μM but <0.2 μM are marked with “++.”)” and 10 to 1000 nM.
As to `Cc1ncccc1-c1cnncc1NC(=O)c1c(N)nn2cc(F)cnc12` [I-B-4, 2-amino-6-fluoro-N-(5-(2-methylpyridin-3-yl)pyridazin-4-yl)pyrazolo[1,5-a]pyrimidine-3-carboxamide], the “Cisplatin Sensitization Assay” value in assay [1] was “+++ (Compounds with a Cisplatin sensitization value of <0.02 μM are marked with “+++.”)”. Besides, the Ki in assay [2] fell in the range of 10 to 1000 nM.
Taken in the same sequence, the figures for `CN1CCN(C(=O)C2CCN(c3cnncc3NC(=O)c3c(N)nn4cc(F)cnc34)CC2)CC1` [I-B-5, 2-amino-6-fluoro-N-(5-(4-(4-methylpiperazine-1-carbonyl)piperidin-1-yl)pyridazin-4-yl)pyrazolo[1,5-a]pyrimidine-3-carboxamide] were “++ (Compounds with a Cisplatin sensitization value >0.02 μM but <0.2 μM are marked with “++.”)” and 10 to 1000 nM.
For `Nc1nn2cc(F)cnc2c1C(=O)Nc1cnncc1N1CCC(CN2CCC(F)(F)C2)CC1` [I-B-6, 2-amino-N-(5-(4-((3,3-difluoropyrrolidin-1-yl)methyl)piperidin-1-yl)pyridazin-4-yl)-6-fluoropyrazolo[1,5-a]pyrimidine-3-carboxamide], in that order: “+++ (Compounds with a Cisplatin sensitization value of <0.02 μM are marked with “+++.”)” and 10 to 1000 nM.
Regarding `CN1CCN(Cc2ccc(-c3cnncc3NC(=O)c3c(N)nn4cc(F)cnc34)cc2)CC1` [I-B-7, 2-amino-6-fluoro-N-(5-(4-((4-methylpiperazin-1-yl)methyl)phenyl)pyridazin-4-yl)pyrazolo[1,5-a]pyrimidine-3-carboxamide], in assay [1], the “Cisplatin Sensitization Assay” value was “+++ (Compounds with a Cisplatin sensitization value of <0.02 μM are marked with “+++.”)”. For the same compound, the Ki in assay [2] fell in the range of 10 to 1000 nM.
Taken in the same sequence, the figures for `Nc1nn2cc(F)cnc2c1C(=O)Nc1cnncc1N1CCC(CN2CCOCC2)CC1` [I-B-8, 2-amino-6-fluoro-N-(5-(4-(morpholinomethyl)piperidin-1-yl)pyridazin-4-yl)pyrazolo[1,5-a]pyrimidine-3-carboxamide] were “++ (Compounds with a Cisplatin sensitization value >0.02 μM but <0.2 μM are marked with “++.”)” and 10 to 1000 nM.
Taken in the same sequence, the figures for `Nc1nn2cc(F)cnc2c1C(=O)Nc1cnncc1N1CCCCC1` [I-B-9, 2-amino-6-fluoro-N-(5-(piperidin-1-yl)pyridazin-4-yl)pyrazolo[1,5-a]pyrimidine-3-carboxamide] were “+++ (Compounds with a Cisplatin sensitization value of <0.02 μM are marked with “+++.”)” and 10 to 1000 nM.
As for `CC(C)(C)N1CCN(C(=O)C2CCN(c3cnncc3NC(=O)c3c(N)nn4cc(F)cnc34)CC2)CC1` [I-B-10, 2-amino-N-(5-(4-(4-(tert-butyl)piperazine-1-carbonyl)piperidin-1-yl)pyridazin-4-yl)-6-fluoropyrazolo[1,5-a]pyrimidine-3-carboxamide], the “Cisplatin Sensitization Assay” value in assay [1] was “++ (Compounds with a Cisplatin sensitization value >0.02 μM but <0.2 μM are marked with “++.”)”. Moreover, the Ki in assay [2] lay within 10 to 1000 nM.
For `CN1CCN(CC2CCN(c3cnncc3NC(=O)c3c(N)nn4cc(F)cnc34)CC2)CC1` [I-B-11, 2-amino-6-fluoro-N-(5-(4-((4-methylpiperazin-1-yl)methyl)piperidin-1-yl)pyridazin-4-yl)pyrazolo[1,5-a]pyrimidine-3-carboxamide], in that order: “++ (Compounds with a Cisplatin sensitization value >0.02 μM but <0.2 μM are marked with “++.”)” and 10 to 1000 nM.
As for `Nc1nn2cc(F)cnc2c1C(=O)Nc1cnncc1N1CCOCC1` [I-B-12, 2-amino-6-fluoro-N-(5-morpholinopyridazin-4-yl)pyrazolo[1,5-a]pyrimidine-3-carboxamide], the “Cisplatin Sensitization Assay” value in assay [1] is listed as “++ (Compounds with a Cisplatin sensitization value >0.02 μM but <0.2 μM are marked with “++.”)”. Besides, in assay [2], the Ki lay in the range of 10 to 1000 nM.
Taken in the same sequence, the figures for `Cc1nncc(NC(=O)c2c(N)nn3cc(F)cnc23)c1N1CCC(C(=O)N2CCN(C)CC2)CC1` [I-B-14, 2-amino-6-fluoro-N-(6-methyl-5-(4-(4-methylpiperazine-1-carbonyl)piperidin-1-yl)pyridazin-4-yl)pyrazolo[1,5-a]pyrimidine-3-carboxamide] were “+++ (Compounds with a Cisplatin sensitization value of <0.02 μM are marked with “+++.”)” and 10 to 1000 nM.
With `Cn1cncc1-c1cnncc1NC(=O)c1c(N)nn2cc(F)cnc12` [I-B-15, 2-amino-6-fluoro-N-(5-(1-methyl-1H-imidazol-5-yl)pyridazin-4-yl)pyrazolo[1,5-a]pyrimidine-3-carboxamide], in assay [1], the “Cisplatin Sensitization Assay” value is “++ (Compounds with a Cisplatin sensitization value >0.02 μM but <0.2 μM are marked with “++.”)”. The Ki in assay [2] lay in the range of 10 to 1000 nM.
Taken in the same sequence, the figures for `Nc1nn2cc(F)cnc2c1C(=O)Nc1cnncc1N1CCC(F)CC1` [I-B-20, 2-amino-6-fluoro-N-(5-(4-fluoropiperidin-1-yl)pyridazin-4-yl)pyrazolo[1,5-a]pyrimidine-3-carboxamide] were “+++ (Compounds with a Cisplatin sensitization value of <0.02 μM are marked with “+++.”)” and 10 to 1000 nM.
Taken in the same sequence, the figures for `Nc1nn2cc(F)cnc2c1C(=O)Nc1cnncc1N1CCC(C(=O)N2CC(F)(F)C2)CC1` [I-B-21, 2-amino-N-(5-(4-(3,3-difluoroazetidine-1-carbonyl)piperidin-1-yl)pyridazin-4-yl)-6-fluoropyrazolo[1,5-a]pyrimidine-3-carboxamide] were “+++ (Compounds with a Cisplatin sensitization value of <0.02 μM are marked with “+++.”)” and 10 to 1000 nM.
`Nc1nn2cc(F)cnc2c1C(=O)Nc1cnncc1N1CCC(C(=O)N2CC(F)C2)CC1` [I-B-22, 2-amino-6-fluoro-N-(5-(4-(3-fluoroazetidine-1-carbonyl)piperidin-1-yl)pyridazin-4-yl)pyrazolo[1,5-a]pyrimidine-3-carboxamide]: the “Cisplatin Sensitization Assay” value in assay [1] is “+++ (Compounds with a Cisplatin sensitization value of <0.02 μM are marked with “+++.”)”. The Ki in assay [2] was under 10 nM.
For the compound `CS(=O)(=O)C1CCN(c2cnncc2NC(=O)c2c(N)nn3cc(F)cnc23)CC1` [I-B-23, 2-amino-6-fluoro-N-(5-(4-(methylsulfonyl)piperidin-1-yl)pyridazin-4-yl)pyrazolo[1,5-a]pyrimidine-3-carboxamide], in assay [1], the “Cisplatin Sensitization Assay” value is reported as “++ (Compounds with a Cisplatin sensitization value >0.02 μM but <0.2 μM are marked with “++.”)”. Further, the Ki in assay [2] is 10 to 1000 nM.
